The text below walks through data of paper PMC6268315, “Investigating the Spectrum of Biological Activity of Substituted Quinoline-2-Carboxamides and Their Isosteres ^†” (Molecules, 2012).

Several values for one entry are separate records, joined by “and”; a condition that tells them apart may be missing. Equal values may be shown once.

The subject of series [1] is photosynthetic electron transport (PET) in spinach chloroplasts. The experiment in a line: Inhibition of photosynthetic electron transport (PET) in spinach chloroplasts. To be noted: photoreduction of DCPIP, pH 7.2. Type of series: biochemical, Spinacia oleracea L. As to the method: Chloroplasts were prepared from spinach (Spinacia oleracea L.) according to Masarovicova and Kralova. The inhibition of photosynthetic electron transport (PET) in spinach chloroplasts was determined spectrophotometrically (Genesys 6, Thermo Scientific, USA), using an artificial electron acceptor 2,6-dichlorophenol-indophenol (DCIPP) according to Kralova et al., and the rate of photosynthetic electron transport was monitored as a photoreduction of DCPIP. The measurements were carried out in phosphate buffer (0.02 mol/L, pH 7.2) containing sucrose (0.4 mol/L), MgCl2 (0.005 mol/L) and NaCl (0.015 mol/L). The chlorophyll content was 30 mg/L in these experiments and the samples were irradiated (~100 W/m^2 with 10 cm distance) with a halogen lamp (250 W) using a 4 cm water filter to prevent warming of the samples (suspension temperature 22 °C). The studied compounds were dissolved in DMSO due to their limited water solubility. […] The inhibitory efficiency of the studied compounds was expressed by IC50 values, i.e., by molar concentration of the compounds causing 50% decrease in the oxygen evolution rate relative to the untreated control.

As a reminder, the melting point is the temperature of the solid-liquid transition. `O=C(c1ccc2ccccc2n1)N1CCCCC1` [Compound 4, 2-(Piperidin-1-ylcarbonyl)quinoline] yielded a melting point of 83 to 84 °C.

What is called IC50 is the concentration needed to halve the response being measured. Read a low IC50 as higher potency. Turning to `O=C(NCc1ccccc1)c1ccc2ccccc2n1` [Compound 10, N-Benzylquinoline-2-carboxamide], the melting point was in the range of 123 to 124 °C. This compound registered an IC50 in series [1] of 59.4 µM.

As for `O=C(Nc1ccccc1O)c1ccc2ccccc2n1` [Compound 12a, N-(2-Hydroxyphenyl)quinoline-2-carboxamide], the melting point is 219 to 220 °C. In series [1], this compound showed an IC50 of 16.3 µM.

Compound `O=C(Nc1cccc(O)c1)c1ccc2ccccc2n1` [Compound 12b, N-(3-Hydroxyphenyl)quinoline-2-carboxamide] registered a melting point of 154 to 155 °C.

As to `O=C(Nc1ccc(O)cc1)c1ccc2ccccc2n1` [Compound 12c, N-(4-Hydroxyphenyl)quinoline-2-carboxamide], the melting point lay within 230 to 231 °C.

As to `COc1ccccc1NC(=O)c1ccc2ccccc2n1` [Compound 13a, N-(2-Methoxyphenyl)quinoline-2-carboxamide], the melting point lay within 111 to 112 °C.

`COc1cccc(NC(=O)c2ccc3ccccc3n2)c1` [Compound 13b, N-(3-Methoxyphenyl)quinoline-2-carboxamide] returned a melting point of 117 to 118 °C.

As for `COc1ccc(NC(=O)c2ccc3ccccc3n2)cc1` [Compound 13c, N-(4-Methoxyphenyl)quinoline-2-carboxamide], the melting point lay in the range of 130 to 131 °C.

`Cc1ccccc1NC(=O)c1ccc2ccccc2n1` [Compound 14a, N-(2-Methylphenyl)quinoline-2-carboxamide] had a melting point of 100 to 101 °C. This compound returned an IC50 in series [1] of 143 µM.

For `Cc1ccc(NC(=O)c2ccc3ccccc3n2)cc1` [Compound 14c, N-(4-Methylphenyl)quinoline-2-carboxamide], the melting point was in the range of 107 to 108 °C.

With `O=C(Nc1ccccc1F)c1ccc2ccccc2n1` [Compound 15a, N-(2-Fluorophenyl)quinoline-2-carboxamide], the melting point fell in the range of 116 to 117 °C. In series [1], this compound had an IC50 of 98.1 µM.

`O=C(Nc1cccc(F)c1)c1ccc2ccccc2n1` [Compound 15b, N-(3-Fluorophenyl)quinoline-2-carboxamide] had a melting point of 126 to 127 °C. The IC50 in series [1] was found to be 86.9 µM.

Turning to `O=C(Nc1ccc(F)cc1)c1ccc2ccccc2n1` [Compound 15c, N-(4-Fluorophenyl)quinoline-2-carboxamide], the melting point is 115 to 116 °C. In series [1], this compound returned an IC50 of 75.3 µM.

`O=C(Nc1ccccc1Cl)c1ccc2ccccc2n1` [Compound 16a, N-(2-Chlorophenyl)quinoline-2-carboxamide] had a melting point of 130 to 131 °C. The midpoint of inhibition in series [1], the IC50, lay at 56.3 µM.

In turn, `O=C(Nc1cccc(Cl)c1)c1ccc2ccccc2n1` [Compound 16b, N-(3-Chlorophenyl)quinoline-2-carboxamide] came in with a melting point of 127 to 128 °C. In series [1], this compound showed an IC50 of 91.9 µM.

`O=C(Nc1ccc(Cl)cc1)c1ccc2ccccc2n1` [Compound 16c, N-(4-Chlorophenyl)quinoline-2-carboxamide] showed a melting point of 134 to 135 °C. The compound also displayed an IC50 in series [1] of 148 µM.

The compound `O=C(Nc1ccccc1Br)c1ccc2ccccc2n1` [Compound 17a, N-(2-Bromophenyl)quinoline-2-carboxamide] showed a melting point of 134 to 135 °C. Also, the IC50 in series [1] turned out to be 92.2 µM.

On to `O=C(Nc1cccc(Br)c1)c1ccc2ccccc2n1` [Compound 17b, N-(3-Bromophenyl)quinoline-2-carboxamide], for which the melting point lay within 139 to 140 °C. The compound further showed an IC50 in series [1] of 409 µM.

`O=C(Nc1ccc(Br)cc1)c1ccc2ccccc2n1` [Compound 17c, N-(4-Bromophenyl)quinoline-2-carboxamide] had a melting point of 157 to 158 °C. The compound also yielded a half-maximal inhibitory concentration (IC50) in series [1] of 308 µM.

As to `O=C(Nc1ccccc1C(F)(F)F)c1ccc2ccccc2n1` [Compound 18a, N-(2-Trifluoromethylphenyl)quinoline-2-carboxamide], the melting point fell in the range of 120 to 121 °C. In addition, in series [1], it took 109 µM to reach half-maximal inhibition (IC50).

The compound `O=C(Nc1cccc(C(F)(F)F)c1)c1ccc2ccccc2n1` [Compound 18b, N-(3-Trifluoromethylphenyl)quinoline-2-carboxamide] displayed a melting point of 121 to 122 °C. In series [1], the IC50 came out at 330 µM.

`O=C(Nc1ccc(C(F)(F)F)cc1)c1ccc2ccccc2n1` [Compound 18c, N-(4-Trifluoromethylphenyl)quinoline-2-carboxamide] showed a melting point of 147 to 148 °C.

Regarding `O=C(Nc1ccccc1[N+](=O)[O-])c1ccc2ccccc2n1` [Compound 19a, N-(2-Nitrophenyl)quinoline-2-carboxamide], the melting point lay in the range of 181 to 182 °C.

As for `O=C(Nc1cccc([N+](=O)[O-])c1)c1ccc2ccccc2n1` [Compound 19b, N-(3-Nitrophenyl)quinoline-2-carboxamide], the melting point lay within 189 to 190 °C.

As for `O=C(Nc1ccc([N+](=O)[O-])cc1)c1ccc2ccccc2n1` [Compound 19c, N-(4-Nitrophenyl)quinoline-2-carboxamide], the melting point lay within 227 to 228 °C.

The compound `CC(C)NC(=O)c1ccc2ccccc2c1` [Compound 20, N-Isopropyl-2-naphthamide] gave a melting point of 174 to 176 °C. This compound registered an IC50 in series [1] of 353 µM.

Regarding `CCCCCCCCCCCCNC(=O)c1ccc2ccccc2c1` [Compound 21, N-Dodecyl-2-naphthamide], the melting point lay within 102 to 103 °C. The IC50 in series [1] turned out to be 845 µM.

For `O=C(c1ccc2ccccc2c1)N1CCCCC1` [Compound 23, 1-(2-Naphthoyl)piperidine], the melting point lay in the range of 97 to 98 °C.

For `O=C(NC1CCCC1)c1ccc2ccccc2c1` [Compound 24, N-Cyclopentyl-2-naphthamide], the melting point was 190 to 191 °C.

Turning to `O=C(NC1CCCCC1)c1ccc2ccccc2c1` [Compound 25, N-Cyclohexyl-2-naphthamide], the melting point is 184 to 185 °C.

For `O=C(NC1CCCCCC1)c1ccc2ccccc2c1` [Compound 26, N-Cycloheptyl-2-naphthamide], the melting point lay in the range of 157 to 158 °C. The compound further gave an IC50 in series [1] of 216 µM.

Compound `O=C(NC1CCCCCCC1)c1ccc2ccccc2c1` [Compound 27, N-Cyclooctyl-2-naphthamide] showed a melting point of 145 to 146 °C. This compound returned an IC50 in series [1] of 688 µM.

As to `O=C(Nc1ccccc1)c1ccc2ccccc2c1` [Compound 28, N-Phenyl-2-naphthamide], the midpoint of inhibition in series [1], the IC50, lay at 20.7 µM. In other words, the double-digit micromolar range.

`O=C(NCc1ccccc1)c1ccc2ccccc2c1` [Compound 29, N-Benzyl-2-naphthamide] came in with a melting point of 138 to 139 °C. Besides, inhibition in series [1] was half-maximal at 7.5 µM (IC50).

`O=C(NCCc1ccccc1)c1ccc2ccccc2c1` [Compound 30, N-(2-Phenylethyl)-2-naphthamide]: the melting point is 133 to 134 °C.

Compound `O=C(Nc1cccc(O)c1)c1ccc2ccccc2c1` [Compound 31b, N-(3-Hydroxyphenyl)-2-naphthamide] returned a melting point of 194 °C.

`Cc1ccccc1NC(=O)c1ccc2ccccc2c1` [Compound 33a, N-(2-Methylphenyl)-2-naphthamide] returned a melting point of 146 °C.

Regarding `Cc1cccc(NC(=O)c2ccc3ccccc3c2)c1` [Compound 33b, N-(3-Methylphenyl)-2-naphthamide], the melting point stood at 160 °C.

On to `Cc1ccc(NC(=O)c2ccc3ccccc3c2)cc1` [Compound 33c, N-(4-Methylphenyl)-2-naphthamide], for which the melting point was 195 °C.

With `O=C(Nc1ccccc1F)c1ccc2ccccc2c1` [Compound 34a, N-(2-Fluorophenyl)-2-naphthamide], the melting point came to 122 °C.

On to `O=C(Nc1cccc(F)c1)c1ccc2ccccc2c1` [Compound 34b, N-(3-Fluorophenyl)-2-naphthamide], for which the melting point was determined as 167 °C.

`O=C(Nc1ccc(F)cc1)c1ccc2ccccc2c1` [Compound 34c, N-(4-Fluorophenyl)-2-naphthamide] yielded a melting point of 191 °C.

For `O=C(Nc1ccccc1Cl)c1ccc2ccccc2c1` [Compound 35a, N-(2-Chlorophenyl)-2-naphthamide], the melting point came out at 116 °C.

With `O=C(Nc1ccc(Cl)cc1)c1ccc2ccccc2c1` [Compound 35c, N-(4-Chlorophenyl)-2-naphthamide], the melting point came out at 218 °C.

With `O=C(Nc1ccccc1Br)c1ccc2ccccc2c1` [Compound 36a, N-(2-Bromophenyl)-2-naphthamide], the melting point worked out at 123 °C.

`O=C(Nc1ccc(Br)cc1)c1ccc2ccccc2c1` [Compound 36c, N-(4-Bromophenyl)-2-naphthamide] gave a melting point of 231 °C.

For `O=C(Nc1ccc(C(F)(F)F)cc1)c1ccc2ccccc2c1` [Compound 37c, N-(4-Trifluoromethylphenyl)-2-naphthamide], the melting point turned out to be 224 °C.

In turn, `O=C(Nc1ccccc1[N+](=O)[O-])c1ccc2ccccc2c1` [Compound 38a, N-(2-Nitrophenyl)-2-naphthamide] yielded a melting point of 136 °C.

Take `CN(C)C(=O)Nc1ccc(Cl)c(Cl)c1` [DCMU, 3-(3,4-dichlorophenyl)-1,1-dimethylurea, reference compound]: the IC50 in series [1] was ~1.9 µM and 1.9 µM.
